Values of other authors in patent EP3796908B1, “CONTROLLED RELEASE PROPIVERINE FORMULATIONS” (Santa Farma Ilaç Sanayi A.S., priority 2018, dated 2020).
Where two headings read alike, the source gives them in different places.

Legend:
[1] = BCS classification
[2] = for maximal plasma concentrations reached after / mean absolute bioavailability: oral administration
[3] = administration of the ER capsule

SMILES: CCCOC(C(=O)OC1CCN(C)CC1)(c1ccccc1)c1ccccc1 [propiverine, 1-methyl-4-piperidyl diphenylpropoxy acetate]
- solubility [1]: high solubility
- mean Cmax [2, 3]: about 70 ng/ml
- time in which Cmax is reached after administration [2, 3]: ≤ 9.5 h
- maximal plasma concentrations reached after ([2]; immediate release): 2.3 h
- mean absolute bioavailability ([2]; immediate release): 40.5%
- maximal plasma concentrations reached after ([2]; modified release): 9.9 h
- mean absolute bioavailability ([2]; modified release): 60.8 ± 17.3%
